# Measured values: patent US9034391B2, “Compositions with enhanced bioavailability and fast acting inhibitor or gastric acid secretion” (YALE UNIVERSITY, priority 2006, dated 2015)
# “And” between values parts separate entries of the source, which are not always exact repeats. Equal entries are not always repeated. “Also recorded” adds a separate entry of the source.
# Experiments:
# fundic H+,K+-ATPase = molecular target: T1, fundic H+,K+-ATPase (Rattus norvegicus, UniProt P09626); experiment: Intracellular pH recovery in isolated rat fundic (F1) glands; format: cell-based; settings: for effect on fundic (F1) acid secretion (in words): histamine 100 μM
# T1 construct: Glands adjacent to the esophageal junction were hand dissected; from tissue; host or cells: hand-dissected fundic glands of Sprague Dawley rat stomach, next to the esophageal junction
# T1 sequence (P09626 whole entry): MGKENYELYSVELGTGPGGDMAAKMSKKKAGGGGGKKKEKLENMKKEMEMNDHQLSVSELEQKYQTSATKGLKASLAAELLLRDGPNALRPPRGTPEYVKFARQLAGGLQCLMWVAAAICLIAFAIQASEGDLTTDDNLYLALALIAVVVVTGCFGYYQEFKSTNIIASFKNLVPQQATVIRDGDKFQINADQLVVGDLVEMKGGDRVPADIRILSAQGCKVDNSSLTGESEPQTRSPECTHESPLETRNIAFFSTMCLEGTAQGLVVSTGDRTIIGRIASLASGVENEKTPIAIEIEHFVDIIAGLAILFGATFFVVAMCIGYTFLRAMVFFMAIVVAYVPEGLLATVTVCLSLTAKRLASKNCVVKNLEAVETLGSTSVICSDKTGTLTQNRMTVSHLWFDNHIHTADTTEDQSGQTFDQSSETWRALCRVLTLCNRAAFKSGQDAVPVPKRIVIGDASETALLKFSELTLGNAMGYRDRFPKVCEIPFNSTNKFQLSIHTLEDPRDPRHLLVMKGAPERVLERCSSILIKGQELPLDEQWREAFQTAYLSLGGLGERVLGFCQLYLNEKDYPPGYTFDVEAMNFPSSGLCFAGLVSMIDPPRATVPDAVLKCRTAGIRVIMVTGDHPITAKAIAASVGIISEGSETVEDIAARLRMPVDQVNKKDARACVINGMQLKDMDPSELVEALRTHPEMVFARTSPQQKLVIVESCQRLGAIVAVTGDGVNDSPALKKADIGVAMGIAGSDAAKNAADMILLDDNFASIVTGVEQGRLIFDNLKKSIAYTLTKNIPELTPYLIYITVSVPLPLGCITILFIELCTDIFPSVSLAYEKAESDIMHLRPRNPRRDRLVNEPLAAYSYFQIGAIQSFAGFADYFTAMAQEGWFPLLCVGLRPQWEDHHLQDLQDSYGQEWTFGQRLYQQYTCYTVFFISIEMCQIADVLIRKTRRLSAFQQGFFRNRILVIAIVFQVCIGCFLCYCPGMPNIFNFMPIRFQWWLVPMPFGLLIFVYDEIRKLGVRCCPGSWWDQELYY
# T1 sequence (P18598 whole entry partner): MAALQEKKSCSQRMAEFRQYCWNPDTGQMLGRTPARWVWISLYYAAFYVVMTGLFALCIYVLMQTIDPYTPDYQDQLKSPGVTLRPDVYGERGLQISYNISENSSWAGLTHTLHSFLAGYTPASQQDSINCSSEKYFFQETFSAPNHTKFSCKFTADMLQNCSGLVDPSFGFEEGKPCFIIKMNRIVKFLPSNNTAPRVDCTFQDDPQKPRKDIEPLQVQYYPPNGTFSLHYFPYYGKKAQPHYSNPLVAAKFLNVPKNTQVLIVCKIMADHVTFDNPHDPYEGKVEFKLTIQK
# Protocol: Male Sprague Dawley rats weighing 200-300 g were housed in climate and humidity controlled, light cycled rooms and fed standard chow with free access to water. Prior to experiments, animals were fasted while allowing free access to water for 18-24 hours to reduce basal acid secretion. Following isoflurane anesthesia the animals were sacrificed, an abdominal incision was made exposing the stomach. After isolating the esophagus and duodenal junctures a total gastrectomy was performed with 1-2 cm of esophagus remaining attached to the gastrectomy. We included the esophageal juncture to have a common landmark for all fundic isolations. While holding the esophagus with forceps approximately 3 mm of fundus was removed with 5 mm of the intact esophagus.
# The removed fundic tissue was placed in ice cold HEPES-buffered Ringer-solution (pH adjusted to 7.4 at 4° C.) and transferred to the stage of a dissection microscope. The fundic glands were visualized under the microscope at 50× magnification. Glands adjacent to the esophageal junction were hand dissected. […]
# Using the same protocol that we developed for isolated corpus gland perfusion^20a, 21a individual fundic glands were loaded with a […] of the pH sensitive dye (BCECF, (2′7-bis(2-carbocyethal)-5-(and 6)-carboxyflurorescein-acetomethylester; Molecular Probes, OR USA)) for 15 minutes. […] Acid extrusion was monitored in the absence of bicarbonate. […] Intracellular pH recovery rates (H^+, K^+-ATPase activity) were measured in Na^+ free HEPES solutions containing: 1) 100 μM histamine 2) 100 μM pentagastrin. […]
# The recovery rates are expressed as the ΔpHi/min, and were calculated over the pH range of 6.5-6.9.
# Activation of acid secretion via histamine, acetylcholine or pentagastrin was induced by preincubation of the glands for 15 min before the experiment combined with BCECF (100 μM) loading. All data are summarized as mean±S.E. Significance was determined using the one-way ANOVA test with p<0.05 considered to be statistically significant. […]
# H+,K+-ATPase [1] = molecular target: T2, H+,K+-ATPase (Rattus norvegicus, UniProt P09626); experiment: Intracellular pH recovery in rat corpus glands (fundus/corpus comparison); format: cell-based; settings: corpus glands
# T2 construct: Individual glands were isolated using a hand-dissection technique as described previously; from tissue; host or cells: hand-dissected rat gastric glands (corpus and antrum), parietal cells
# T2 sequence (P09626 whole entry): as the sequence (P09626 whole entry) above
# T2 sequence (P18598 whole entry partner): as the sequence (P18598 whole entry partner) above
# Protocol: Molecular Probes, OR USA)) for 15 minutes. […] Measurements were performed in the epifluorescence mode with 60×/0.80 and 40×/0.90 objectives. […] Data points were acquired every 15 s. […] Acid extrusion was monitored in the absence of bicarbonate. […] All data are summarized as mean±S.E. Significance was determined using the one-way ANOVA test with p<0.05 considered to be statistically significant. All chemicals used were obtained from Sigma and Molecular Probes.
# H+,K+-ATPase [2] = molecular target: T2, H+,K+-ATPase; experiment: Intracellular pH recovery (BCECF, NH4Cl prepulse) in isolated rat gastric glands; format: cell-based
# Source text: Following removal of the stomach, the stomach was opened longitudinally and the corpus and antrum isolated and sliced into 0.5 cm square sections, and washed with cold Ringer solution to remove residual food particles. The tissues were transferred to the stage of a dissecting microscope. Individual glands were isolated using a hand-dissection technique as described previously^36. Following isolation, individual isolated glands were allowed to adhere to cover slips that had been pre-coated with Cell-Tak (Collaborative Research, Bedford, Mass.) and were transferred to the stage of an inverted microscope.
# Isolated gastric glands were incubated in a HEPES-buffered Ringer's solution containing either 10 μmol of the pH-sensitive dye BCECF-AM (2′,7′)-bis-(2-carboxyethyl)-5-(and -6)-carboxy-fluorescin, aceto-methyl ester (Molecular Probes, Eugene, Oreg.) for 10 minutes as described previously^37-39. […] A minimum of 8 cells or regions was selected per gland.
# Proton extrusion by individual parietal cells was monitored by observing recovery of pHi after acid loading the cells with Na^+ free HEPES solution containing 20 mM NH4C1.
# The recovery rates are expressed as the ΔpH/min, and were calculated over the pH range of 6.5-6.8.
# [3] = test system: gastric acid secretion in freshly isolated rat whole stomach; experiment: Whole stomach pH measurements, ex vivo rat whole stomach preparation
# Protocol: Before the experiments animals were fasted for 24 h to reduce basal acid secretion to a consistent minimum. Animals were killed with an overdose of isoflurane and an abdominal incision was made. The stomach was ligated at the duodenal and esophageal junction and excised. Then 1 ml of non buffered, isotonic saline (140 mM) was infused into the lumen of the stomach. […] The stomachs were then placed in either oxygenated HEPES-buffered Ringer solution or in the same solution containing 100 μM histamine alone or additionally 300 μM ZnCl2 (pH 7.4) and maintained at 37° C. After 1 hour the stomach contents were aspirated and the pH was recorded.
# [4] = test system: histamine induced acid secretion; experiment: Oral zinc supplementation in rats, histamine induced proton extrusion of isolated glands; format: in vivo, rat
# Source text: Following dye-loading the chamber was flushed with a HEPES solution to remove all non-de-esterified dye. The perfusion chamber was mounted on the stage of an inverted microscope (Olympus IX50), which was used in the epifluorescence mode with a 40× objective. BCECF was successively excited at 440 nm and 490 nm from a monochromator light source, and the resultant fluorescent signal was monitored at 535 nm using an intensified charge-coupled device camera. Individual regions of interest were outlined and simultaneously monitored every 15 sec. during the course of the experiment. A minimum of 8 cells or regions was selected per gland.
# Proton extrusion by individual parietal cells was monitored by observing recovery of pHi after acid loading the cells with Na^+ free HEPES solution containing 20 mM NH4C1. Parietal cells were subsequently superfused with Na^+ free HEPES, which abolished all Na^+/H^+ Exchanger (NHE) activity, trapping H^+ within the cytosol and initiating an immediate drop in pHi. Under these conditions, the only potential H^+ extrusion pathway is via the H^+,K^+-ATPase activation.
# The intensity ratio data (490/440) were converted to pH values using the high K^+/nigericin calibration technique^40. Intracellular pH recovery rates were calculated from the same initial starting pH to eliminate the potential variation in the individual intracellular buffering power of the cells under the different experimental conditions. All data including the individual images for all wavelengths were recorded to the hard disk which allowed us to return to the individual images after the experiment for further analysis. The recovery rates are expressed as the ΔpH/min, and were calculated over the pH range of 6.5-6.8. All chemicals were obtained from Sigma and Molecular Probes. All data were summarized as means±SE and were analysed by grouping measurements at baseline values.
# H+,K+-ATPase [5] = molecular target: H+,K+-ATPase (Homo sapiens, UniProt P20648); settings: human gastric glands
# Chain of H+,K+-ATPase (Homo sapiens, UniProt P20648) (P20648 whole entry, the tested form may be a part): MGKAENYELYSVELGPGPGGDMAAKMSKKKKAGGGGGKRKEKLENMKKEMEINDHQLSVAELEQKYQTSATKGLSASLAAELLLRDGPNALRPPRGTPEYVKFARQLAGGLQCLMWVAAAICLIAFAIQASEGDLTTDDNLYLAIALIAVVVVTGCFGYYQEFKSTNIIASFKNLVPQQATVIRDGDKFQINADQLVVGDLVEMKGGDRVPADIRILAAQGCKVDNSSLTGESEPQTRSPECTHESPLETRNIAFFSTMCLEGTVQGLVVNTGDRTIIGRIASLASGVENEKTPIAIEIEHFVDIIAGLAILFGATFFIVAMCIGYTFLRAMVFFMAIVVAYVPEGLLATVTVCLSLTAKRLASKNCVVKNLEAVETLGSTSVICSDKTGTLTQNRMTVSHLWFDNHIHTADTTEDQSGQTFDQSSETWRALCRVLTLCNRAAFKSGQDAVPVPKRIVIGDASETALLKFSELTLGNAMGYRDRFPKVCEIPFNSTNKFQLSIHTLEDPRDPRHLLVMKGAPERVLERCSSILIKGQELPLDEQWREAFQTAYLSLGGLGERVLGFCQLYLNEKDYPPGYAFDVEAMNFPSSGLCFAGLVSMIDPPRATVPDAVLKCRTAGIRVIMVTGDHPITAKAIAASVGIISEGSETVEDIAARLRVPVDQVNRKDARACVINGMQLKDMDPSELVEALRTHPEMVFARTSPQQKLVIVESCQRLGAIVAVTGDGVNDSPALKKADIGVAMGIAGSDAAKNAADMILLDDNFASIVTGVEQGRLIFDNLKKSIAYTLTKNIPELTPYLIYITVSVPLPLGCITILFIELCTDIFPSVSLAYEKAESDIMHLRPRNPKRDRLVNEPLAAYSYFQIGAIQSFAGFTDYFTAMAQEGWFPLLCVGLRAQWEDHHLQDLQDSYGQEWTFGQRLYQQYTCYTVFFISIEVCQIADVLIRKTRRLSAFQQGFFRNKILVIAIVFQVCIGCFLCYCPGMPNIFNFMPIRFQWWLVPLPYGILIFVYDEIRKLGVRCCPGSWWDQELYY
# Chain of H+,K+-ATPase (Homo sapiens, UniProt P20648) (P51164 whole entry partner, the tested form may be a part): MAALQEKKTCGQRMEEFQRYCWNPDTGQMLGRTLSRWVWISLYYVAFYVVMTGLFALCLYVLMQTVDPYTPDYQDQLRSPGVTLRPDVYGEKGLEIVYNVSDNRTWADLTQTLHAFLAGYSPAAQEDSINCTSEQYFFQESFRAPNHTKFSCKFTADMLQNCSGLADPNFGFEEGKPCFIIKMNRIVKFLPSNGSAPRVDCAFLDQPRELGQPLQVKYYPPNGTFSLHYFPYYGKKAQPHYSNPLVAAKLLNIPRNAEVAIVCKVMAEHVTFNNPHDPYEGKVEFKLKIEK
# Protocol: The human tissue was transferred from the OR in a HEPES-buffered Ringer solution. The tissue was stored on ice and immediately the isolated glands were dissected as described above.
# Isolated gastric glands were incubated in a HEPES-buffered Ringer's solution containing either 10 μmol of the pH-sensitive dye BCECF-AM (2′,7′)-bis-(2-carboxyethyl)-5-(and -6)-carboxy-fluorescin, aceto-methyl ester (Molecular Probes, Eugene, Oreg.) for 10 minutes as described previously^37-39. Following dye-loading the chamber was flushed with a HEPES solution to remove all non-de-esterified dye. The perfusion chamber was mounted on the stage of an inverted microscope (Olympus IX50), which was used in the epifluorescence mode with a 40× objective. BCECF was successively excited at 440 nm and 490 nm from a monochromator light source, and the resultant fluorescent signal was monitored at 535 nm using an intensified charge-coupled device camera. Individual regions of interest were outlined and simultaneously monitored every 15 sec. during the course of the experiment. A minimum of 8 cells or regions was selected per gland.
# Proton extrusion by individual parietal cells was monitored by observing recovery of pHi after acid loading the cells with Na^+ free HEPES solution containing 20 mM NH4C1. Parietal cells were subsequently superfused with Na^+ free HEPES, which abolished all Na^+/H^+ Exchanger (NHE) activity, trapping H^+ within the cytosol and initiating an immediate drop in pHi. […]
# The intensity ratio data (490/440) were converted to pH values using the high K^+/nigericin calibration technique^40. Intracellular pH recovery rates were calculated from the same initial starting pH to eliminate the potential variation in the individual intracellular buffering power of the cells under the different experimental conditions. […] The recovery rates are expressed as the ΔpH/min, and were calculated over the pH range of 6.5-6.8. […] All data were summarized as means±SE and were analysed by grouping measurements at baseline values.
SMILES,"effect on fundic (F1) acid secretion (in words) (fundic H+,K+-ATPase)","effect on corpus acid secretion (in words) (H+,K+-ATPase [1])","inhibition of proton extrusion (H+,K+-ATPase [2]; 300 μM ZnCl2, compared to the histamine (100 μM) induced rate) [%]","onset of inhibition of histamine induced acid secretion (H+,K+-ATPase [2]; ZnCl2 300 μM added to superfusion bath during alkalinization, histamine 100 μM)","reversibility of inhibition after removal of ZnCl2 (H+,K+-ATPase [2]; ZnCl2 300 μM, histamine 100 μM)","effect on histamine induced acid secretion (in words) (H+,K+-ATPase [2]; rat gastric glands, histamine 100 μM, ZnCl2 25-300 μM)","luminal pH ([3]; 100 μM histamine and 300 μM ZnCl2, 1 hour)",luminal pH compared with histamine alone (in words) ([3]; 100 μmol histamine and 300 μmol ZnCl2),histamine induced proton extrusion rate after oral ZnCl2 ([4]; 0.05 mg/kg/d ZnCl2 in drinking water for 5 days),histamine induced proton extrusion rate after oral ZnCl2 ([4]; 150 mg/kg/d ZnCl2 in drinking water for 5 days),"effect on histamine stimulated proton efflux (in words) (H+,K+-ATPase [5]; histamine 100 μM, ZnCl2 300 μM)","recovery rate (proton extrusion) of histamine stimulated parietal cells ([4]; control group with histamine alone, no ZnCl2)","F1 gland alkalinization rate (fundic H+,K+-ATPase; 100 μM secretagogue alone)","proton efflux under histamine stimulation (in words) (H+,K+-ATPase [5]; histamine alone)"
Cc1cccc(C)c1CNc1cc(C(=O)NCCO)cn2c(C)c(C)nc12 [AZD0865],does not completely inhibit proton extrusion,effectively inhibits acid secretion,–,–,–,–,–,–,–,–,–,–,–,–
"[Cl-].[Cl-].[Zn+2] [ZnCl2, zinc chloride]",–,–,98,a few seconds,increase of the intracellular pH continued; also recorded: returns to normal levels,blocked; also recorded: dose dependent manner,4.54±0.065,higher pH,0.034±0.0036 ΔpH/min,0.022±0.0045 ΔpH/min,blocked; also recorded: abolished,–,–,–
NCCc1c[nH]cn1 [histamine],no effect,–,–,–,–,–,–,–,–,–,–,0.051±0.004 ΔpH/min,0.042±0.007 ΔpHi/min and 0.040±0.0079 ΔpHi/min,robust proton efflux
